Tests used:
[1] = molecular target: T1, fusion protein containing GAL4-DNA-binding domain and ERR full-length (Homo sapiens, UniProt P11474); test: Reporter assay system using 293T cells (GAL4-ERR luciferase, inverse agonist activity); type: cell-based; conditions: HEK-293T, compound final concentration 3 μM, no compound = 0%, 10 μM XCT-790 = 100%, read-out: inhibition rate (%) at 3 μM
T1 construct: expressed in transfected cells; host or cells: 293T cells
T1 sequence (P11474 1-423): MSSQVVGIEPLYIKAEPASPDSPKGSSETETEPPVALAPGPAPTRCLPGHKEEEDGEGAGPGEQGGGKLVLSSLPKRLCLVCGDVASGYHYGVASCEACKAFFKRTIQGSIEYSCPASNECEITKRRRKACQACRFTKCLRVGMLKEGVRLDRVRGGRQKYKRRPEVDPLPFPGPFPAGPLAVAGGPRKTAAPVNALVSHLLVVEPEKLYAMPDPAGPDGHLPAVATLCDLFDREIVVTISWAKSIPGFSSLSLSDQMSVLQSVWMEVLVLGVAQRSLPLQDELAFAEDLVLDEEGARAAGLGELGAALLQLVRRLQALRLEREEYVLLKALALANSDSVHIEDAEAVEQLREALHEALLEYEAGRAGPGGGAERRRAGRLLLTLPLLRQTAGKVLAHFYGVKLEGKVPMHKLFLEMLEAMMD
Method: Experimental Example 2 Compound Evaluation in Reporter Assay System Using 293T Cells
293T cells derived from human kidney were seeded in a 150 cm^2 flask by 6,000,000 cells, and cultured in a medium (DMEM medium containing 10% inactivated Fetal Bovine Serum sterile filtered (FBS), […] Gentamicin, 10 mM HEPES buffer (pH 7.4)) at 37° C. in the presence of 5% CO2 for 1 day.
Then, vector DNA having a gene encoding a fusion protein, containing GAL4-DNA-binding domain and ERR full-length and a vector DNA wherein luciferase gene is fused at the downstream of GAL4-binding-sequence were cotransfected by a lipofection method, and the cells were cultured at 37° C. in the presence of 5% CO2 for 1 day. The cells were recovered, sown in a 384 well plate by 15,000 cells, and cultured at 37° C. in the presence of 5% CO2 for 3 hrs. Furthermore, 50 μM N-[5-(trifluoromethyl)-1,3,4-thiadiazol-2-yl]-2-cyano-3-[3-methoxy-4-[2,4-di(trifluoromethyl)benzyloxy]phenyl]propenamide (XCT-790) (final concentration 10 μM) or 15 μM compound (final concentration 3 μM) was added, and the cells were cultured at 37° C. in the presence of 5% CO2 for 1 day. The luciferase activity was measured by using multiplate reader Envision (Perkin Elmer Inc.). The inverse agonist activity of the compound was calculated in percentage with the luciferase activity inhibited by no addition of compound as 0%, and with addition of final concentration 10 μM of XCT-790 as 100%.

MDA-MB-231-luc cells = test: Antitumor test using MDA-MB-231-luc cells (subcutaneous transplant); type: in vivo, Balb/c nu/nu mice; conditions: 100 mg/kg orally twice per day, dosing period 15 days; change in tumor volume, vehicle group = 100%
Method: Experimental Example 3 Antitumor Test using MDA-MB-231-luc Cells
6-Week-old Balb/c nu/nu mice were transplanted subcutaneously with 5×10^6 cells/100 μL, and the mice were grouped according to the body weight and tumor volume after 1 to 2 weeks. Vehicle (0.5% MC) or a compound was administered orally to mice (6 mice per group). The administration was twice per day and performed continuously during the dosing period. Setting the change in tumor volume of the vehicle-treated group as 100%, the change rate in tumor volume of the compound-treated group (□/C %) was calculated.

[2] = molecular target: T2, GST-ERR-α ligand-binding domain (Homo sapiens, UniProt P11474); test: HTRF assay system using ERR-α ligand-binding domain (inverse agonist activity, biotinylated SRC-1 (676-700) peptide); type: biochemical; conditions: compound final concentration 30 μM; 665/620 ratio; no compound = 0%, 10 μM XCT-790 = 100%; read-out: inhibition rate (%) at 30 μM
T2 sequence (P11474 193-421 limits assumed): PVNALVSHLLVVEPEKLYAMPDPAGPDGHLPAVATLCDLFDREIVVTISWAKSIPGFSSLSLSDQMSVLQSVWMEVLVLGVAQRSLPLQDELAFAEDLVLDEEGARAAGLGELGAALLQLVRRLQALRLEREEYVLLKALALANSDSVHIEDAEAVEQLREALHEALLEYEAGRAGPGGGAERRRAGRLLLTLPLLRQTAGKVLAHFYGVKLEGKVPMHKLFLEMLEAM
Method: Experimental Example 1 Compound Evaluation in HTRF Assay System Using ERR-α Ligand-Binding Domain
An assay buffer (25 mM HEPES, 100 mM NaCl, 1 mM DTT, 0.1% BSA) containing 5 nM GST-ERR-α ligand-binding domain (final concentration 1.25 nM) was added to a 384 well plate, then 40 μM N-[5-(trifluoromethyl)-1,3,4-thiadiazol-2-yl]-2-cyano-3-[3-methoxy-4-[2,4-di(trifluoromethyl)benzyloxy]phenyl]propenamide (XCT-790) (final concentration 10 μM), or 120 μM compound (final concentration 30 μM) was added. Furthermore, an assay buffer containing XL665 conjugated Streptavidin, Eu^3+ criptate conjugated GST antibody and 200 nM biotinylated SRC-1 (676-700) (final concentration 100 nM) was added, and the mixture was reacted at room temperature for 2 hr. Using Multiplate reader Envision (Perkin Elmer Inc.), after excitation at 320 nm, fluorescence values at 620 nm and 665 nm were measured. The inverse agonist activity of the compound was calculated in percentage with the 665/620 ratio value inhibited by no addition of compound as 0%, and with addition of final concentration 10 μM of XCT-790 as 100%.

- inhibition at 3 µM [1]: 89%
- inhibition at 30 µM [2]: 105%
SMILES: O=C1N=C(NCCOCCO)/C(=C/C2CCN(Cc3ccc(C(F)(F)F)cc3C(F)(F)F)CC2)S1 [Example 13, (5Z)-5-({1-[2,4-bis(trifluoromethyl)benzyl]piperidin-4-yl}methylidene)-4-{[2-(2-hydroxyethoxy)ethyl]amino}-1,3-thiazol-2(5H)-one ditoluenesulfonate]
- T/C (%) (MDA-MB-231-luc cells): 20%
